“Also recorded” adds a separate entry of the source. Like-named read-outs stand apart in the source and are kept apart here.
What was measured:
Format in all cases: cell-based
C. albicans = test: In vitro inhibition of growth of C. albicans
Experimental: Mogroside II, III, IV, V, VI, 11-o-Mogroside V, and Siamenoside I were also evaluated in vitro for inhibition of growth of C. albicans.

A. actinomycetemcomitans = test: Inhibition of growth of oral bacteria, A. actinomycetemcomitans; settings: 500 μM
Experimental: (§1) The concentration of 500 μM of mogroside II, III, IV, V, VI, 11-o-Mogroside V, and Siamenoside I, siraitiflavandiol, rhamnocitrin-3-O-rhamnoside, and kaempferitrin were used to test the inhibition activity against the growth of oral bacteria, A. actinomycetemcomitans and P. gingivalis.

P. gingivalis = test: Inhibition of growth of oral bacteria, P. gingivalis
Experimental: as §1

| Compound | antimicrobial activity against C. albicans (growth inhibition) (C. albicans; in vitro) | antimicrobial activity against A. actinomycetemcomitans (growth inhibition) (A. actinomycetemcomitans) | antimicrobial activity against P. gingivalis (growth inhibition) (P. gingivalis; 500 μM) | antimicrobial activity against C. albicans (growth inhibition) (C. albicans) | antimicrobial activity against P. gingivalis (growth inhibition) (P. gingivalis) |
| --- | --- | --- | --- | --- | --- |
| C[C@H](CC[C@@H](O[C@@H]1O[C@H](CO[C@@H]2O[C@H](CO)[C@@H](O)[C@H](O)[C@H]2O)[C@@H](O)[C@H](O)[C@H]1O[C@@H]1O[C@H](CO)[C@@H](O)[C@H](O)[C@H]1O)C(C)(C)O)[C@H]1CC[C@@]2(C)[C@@H]3CC=C4[C@@H](CC[C@H](O[C@@H]5O[C@H](CO[C@@H]6O[C@H](CO)[C@@H](O)[C@H](O)[C@H]6O)[C@@H](O)[C@H](O)[C@H]5O)C4(C)C)[C@]3(C)C(=O)C[C@]12C [11-o-Mogroside V] | higher antimicrobial activity than mogroside VI and Siamenoside I | higher antimicrobial activity than mogroside II and III | higher antimicrobial activity than mogroside III | – | – |
| C[C@H](CC[C@@H](O[C@@H]1O[C@H](CO[C@@H]2O[C@H](CO)[C@@H](O)[C@H](O)[C@H]2O)[C@@H](O)[C@H](O)[C@H]1O[C@@H]1O[C@H](CO)[C@@H](O)[C@H](O)[C@H]1O)C(C)(C)O)[C@H]1CC[C@@]2(C)[C@@H]3CC=C4[C@@H](CC[C@H](O[C@@H]5O[C@H](CO)[C@@H](O)[C@H](O)[C@H]5O)C4(C)C)[C@]3(C)[C@H](O)C[C@]12C [Siamenoside I] | mogroside II, III, IV, V, and 11-o-Mogroside V showed higher antimicrobial activity than mogroside VI and Siamenoside I | – | – | – | – |
| C[C@@H]1O[C@@H](Oc2cc(O)c3c(=O)c(O[C@@H]4O[C@@H](C)[C@H](O)[C@@H](O)[C@H]4O)c(-c4ccc(O)cc4)oc3c2)[C@H](O)[C@H](O)[C@H]1O [kaempferitrin] | good activity | – | highest activity | – | – |
| C[C@H](CC[C@@H](O[C@@H]1O[C@H](CO[C@@H]2O[C@H](CO)[C@@H](O)[C@H](O)[C@H]2O)[C@@H](O)[C@H](O)[C@H]1O)C(C)(C)O)[C@H]1CC[C@@]2(C)[C@@H]3CC=C4[C@@H](CC[C@H](O[C@@H]5O[C@H](CO)[C@@H](O)[C@H](O)[C@H]5O)C4(C)C)[C@]3(C)[C@H](O)C[C@]12C [mogroside III] | higher antimicrobial activity than mogroside VI and Siamenoside I | mogroside IV, V, VI, 11-o-Mogroside V showed higher antimicrobial activity than mogroside II and III | mogroside II, IV, V, VI, 11-o-Mogroside V showed higher antimicrobial activity than mogroside III | – | – |
| C[C@H](CC[C@@H](O[C@@H]1O[C@H](CO)[C@@H](O)[C@H](O)[C@H]1O[C@@H]1O[C@H](CO)[C@@H](O)[C@H](O)[C@H]1O)C(C)(C)O)[C@H]1CC[C@@]2(C)[C@H]3CC=C4[C@@H](CC[C@H](O[C@@H]5O[C@H](CO[C@@H]6O[C@H](CO)[C@@H](O)[C@H](O)[C@H]6O)[C@@H](O)[C@H](O)[C@H]5O)C4(C)C)[C@]3(C)[C@H](O)C[C@]12C [mogroside IV] | higher antimicrobial activity than mogroside VI and Siamenoside I | higher antimicrobial activity than mogroside II and III | higher antimicrobial activity than mogroside III | – | – |
| C[C@H](CC[C@@H](O[C@@H]1O[C@H](CO[C@@H]2O[C@H](CO)[C@@H](O)[C@H](O)[C@H]2O)[C@@H](O)[C@H](O)[C@H]1O[C@@H]1O[C@H](CO)[C@@H](O)[C@H](O)[C@H]1O)C(C)(C)O)[C@H]1CC[C@@]2(C)[C@@H]3CC=C4[C@@H](CC[C@H](O[C@@H]5O[C@H](CO[C@@H]6O[C@H](CO)[C@@H](O)[C@H](O)[C@H]6O)[C@@H](O)[C@H](O)[C@H]5O)C4(C)C)[C@]3(C)[C@H](O)C[C@]12C [mogroside V, Mogroside V] | higher antimicrobial activity than mogroside VI and Siamenoside I | higher antimicrobial activity than mogroside II and III; also recorded: highest activity | higher antimicrobial activity than mogroside III | – | – |
| C[C@H](CC[C@@H](O[C@@H]1O[C@H](CO[C@@H]2O[C@H](CO)[C@@H](O)[C@H](O)[C@H]2O)[C@@H](O)[C@H](O)[C@H]1O[C@@H]1O[C@H](CO)[C@@H](O)[C@H](O)[C@H]1O)C(C)(C)O)[C@H]1CC[C@@]2(C)[C@H]3CC=C4[C@H](CC[C@H](O[C@@H]5O[C@H](CO[C@@H]6O[C@H](CO)[C@@H](O)[C@H](O)[C@H]6O)[C@@H](O)[C@H](O)[C@H]5O[C@@H]5O[C@H](CO)[C@@H](O)[C@H](O)[C@H]5O)C4(C)C)[C@]3(C)[C@H](O)C[C@]12C [mogroside VI] | mogroside II, III, IV, V, and 11-o-Mogroside V showed higher antimicrobial activity than mogroside VI and Siamenoside I | higher antimicrobial activity than mogroside II and III | higher antimicrobial activity than mogroside III | – | – |
| mogroside II | higher antimicrobial activity than mogroside VI and Siamenoside I | mogroside IV, V, VI, 11-o-Mogroside V showed higher antimicrobial activity than mogroside II and III | higher antimicrobial activity than mogroside III | – | – |
| rhamnocitrin-3-O-rhamnoside | – | – | – | good activity | highest activity |
| siraitiflavandiol | good activity | – | highest activity | – | – |

— patent publication US20120141386A1, “Application of Antimicrobial and Glycemic Control Activities of Lo Han Kuo Fruit (Siraitia grosvenorii)” (ORACEUTICALS, INC., priority 2010, published 2012)
